Structures are written as SMILES. Values after ≈ are worked out from the molar mass of the structure shown.

The values that follow come from ChEMBL document CHEMBL4364294 (J Med Chem, 2019).

Data set [1] in a line: Intrinsic clearance in human liver microsomes. In kind it is ADME, Microsome. As to conditions: read-out: CLH. On the technique in general: Microsomes from liver hold many membrane-bound enzymes, among them those of drug oxidation.
Data set [2] can be described thus: Aqueous solubility of the compound at pH 6.5. Type of data set: physicochemical.
The nature of data set [3]: Aqueous solubility of the compound at pH 1. In kind it is physicochemical.
Data set [4] in a line: Aqueous solubility of the compound at pH 7.4. In kind it is physicochemical.

Turning to `O[C@@H](C[C@H]1c2c(F)cccc2-c2cncn21)[C@H]1CC[C@@H](O)CC1`, in data set [1], the predicted hepatic clearance is 12.7 mL/min/kg.
Take `O=C1CCC(C(O)CC2c3c(F)cccc3-c3cncn32)CC1` (stereo unspecified): in data set [1], the predicted hepatic clearance is 20.3 mL/min/kg.
A word on the solubility: it is the dissolved amount per volume that the medium holds. In the case of `O=C(N[C@H]1CC[C@@H](C(O)CC2c3ccccc3-c3cncn32)CC1)c1ccccc1` (stereo partly specified), the solubility is 65 µM (≈ 26.1 µg/mL) in data set [2], 400 µM (≈ 161 µg/mL) in data set [3] and 56 µM (≈ 22.5 µg/mL) in data set [4]. The predicted hepatic clearance in data set [1] was 8.23 mL/min/kg.
